Our source for the Min conc. response and EC50 values is patent publication US6933308B2 (Bristol-Myers Squibb Company, priority 2002, dated 2005).

In general, EC50 refers to the concentration giving half of the maximal effect.

For this assay, the system named is KCNQ channels. In words: Thallium flux assay for KCNQ channel openers. The format is cell-based. As to conditions: HEK-293 cells stably transfected with a KCNQ family member; for Min conc. response: minimal active concentration: lowest concentration giving signal >= 4 SD of negative controls; for EC50: thallium flux, 10 point concentration series. How it is done:
Thallium Flux Assay for KCNQ Channel Openers.
The thallium assay is a modification of that published by Weaver and is referenced in its entirety (Weaver, C. D. WO 02/31508, 2002).
Approximately 20,000 cells/well of an HEK-293 cell line stably transfected with one of the members of the KCNQ family were plated into clear-bottom, black-walled, poly-D-lysine coated, 384 well assay plates in 20 μl/well of low chloride plating medium. Low chloride plating medium was composed of the following: sodium gluconate, 109 mM; potassium gluconate, 5.4 mM; hemi-calcium gluconate, 3.6 mM; magnesium sulfate, 0.8 mM; sodium bicarbonate, 26.2 mM; sodium phosphate monobasic, 1.2 mM; glutamine, 2 mM; glucose, 5 mM; 4-(2-hydroxyethyl)-1-piperazineethanesulfonic acid (HEPES) (pH 7.3) 10 mM, MEM vitamin solution (10× concentration of vitamins, Gibco/LifeTechnologies 11120-052) and MEM amino acid solution (1× concentration of amino acids, Gibco/LifeTechnologies 11130-051).
Following overnight incubation in a 5% CO2 incubator at 37° C., the cells in the plates were loaded with 20 μl/well of a dye loading solution containing the commercially available thallium-sensitive fluorescent dye BTC-AM, the acetomethoxy ester of BTC (see U.S. Pat. No. 5,501,980) (2 μM) and pluronic acid F-127 (Molecular Probes P 6867) (0.02% w/v) in chloride free assay buffer. Chloride free assay buffer was composed of the following: sodium gluconate, 140 mM; potassium gluconate, 2.5 mM; hemi-calcium gluconate, 6 mM; hemi-magnesium gluconate, 2 mM; glucose, 5 mM; HEPES (pH 7.3), 10 mM.
Following incubation in the dye loading solution for from 45-90 min at room temperature, the dye loading solution was removed by aspiration and replaced with 40 μl/well of chloride free assay buffer.
Prior to addition to cell plates, test compound and standard compounds were dissolved in DMSO to 3 mM concentration. Compounds were then diluted from the 3 mM stock to 100-fold over the final assay concentration in DMSO. Finally, compounds in DMSO were diluted from 100-fold over the final assay concentration to 5-fold over the final assay concentration in chloride free assay buffer.
Ten μl/well of compounds at 5-fold over the final assay concentration were then added to the cell plates. This represents a 1:5 dilution, yielding the final test concentration. The wells used for test compounds were A1-P20. Wells A21-P22 contained a standard opener and a maximally efficacious concentration (positive control). Wells A23-P24 contained chloride free assay buffer containing 1% DMSO (negative control).
Following addition of test compounds, the plates were loaded onto the Molecular Devices FLIPR. The 488 nm line of the argon laser was used to excite the BTC and the emission filter was a 540(+/−30) nm. Images were collected at 1 Hz. Ten seconds of baseline were collected and then the FLIPR was used to add 13 μl/well of a stimulus buffer composed of 7.5 mM Tl2SO4 in chloride free assay buffer. Images were collected for an additional 60 seconds.
For data analysis, the amplitude of the average of the negative controls was subtracted from all wells. The amplitudes of the test compounds were then compared to the value of four standard deviations of the negative control wells. The lowest concentration of a test compound sufficient to generate a signal amplitude greater than or equal to four standard deviations from the amplitude of the negative controls was defined as the minimal active concentration.
For generating EC50 values, compounds were serially diluted in 1:3 volume increments to produce a 10 point concentration series. EC50 values were calculated by fitting the resulting amplitudes to a single-site logistic equation. EC50 was defined as the concentration of test compound required to yield 50% of the maximal response. Maximal response (Maximal opening) was the largest signal amplitude divided by the negative control amplitude generated by any concentration of a test compound. […]

Some results are limits rather than exact numbers.

Take `CC(NC(=O)c1sc(CCN2CCCC2)nc1C(F)(F)F)c1cccc(N(C)C)c1` (stereo not shown) [Example 9, N-[1-[3-(dimethylamino)phenyl]ethyl]-2-[2-(1-pyrrolidinyl)ethyl]-4-(trifluoromethyl)-5-thiazolecarboxamide]: the Min conc. response came out at 10 µM and the EC50 was 1 to 20 µM. The compound `CC(NC(=O)c1sc(CCN2CCCC2)nc1C(F)(F)F)c1cccc(C(F)(F)F)c1` (stereo not shown) [Example 10, 2-[2-(1-pyrrolidinyl)ethyl]-4-(trifluoromethyl)-N-[1-[3-(trifluoromethyl)phenyl]ethyl]-5-thiazolecarboxamide] yielded a Min conc. response of 30 µM and an EC50 of 1 to 20 µM. Consider `CC(NC(=O)c1sc(CCN(C)Cc2ccco2)nc1C(F)(F)F)c1cccc(-c2cccnc2)c1` (stereo not shown) [Example 12, 2-[2-[(2-furanylmethyl)methylamino]ethyl]-N-[1-[3-(3-pyridinyl)phenyl]ethyl]-4-(trifluoromethyl)-5-thiazolecarboxamide], for which the Min conc. response worked out at 3 µM and the EC50 is under 0.05 µM. The compound `CC(NC(=O)c1sc(CCN2CCCC2)nc1C(F)(F)F)c1cccc(OC(F)(F)F)c1` (stereo not shown) [Example 13, 2-[2-(1-pyrrolidinyl)ethyl]-4-(trifluoromethyl)-N-[1-[3-(trifluoromethoxy)phenyl]ethyl]-5-thiazolecarboxamide] yielded a Min conc. response of 10 µM and an EC50 of 1 to 20 µM. Take `CC(NC(=O)c1sc(CCN(C)Cc2ccco2)nc1C(F)(F)F)c1cccc(OC(F)(F)F)c1` (stereo not shown) [Example 14, 2-[2-[(2-furanylmethyl)methylamino]ethyl]-4-(trifluoromethyl)-N-[1-[3-(trifluoromethoxy)phenyl]ethyl]-5-thiazolecarboxamide]: the Min conc. response amounted to 3 µM and the EC50 was under 0.05 µM. Take `CCN(CC)CCc1nc(C(F)(F)F)c(C(=O)NC(C)c2cccc(N(C)C)c2)s1` (stereo not shown) [Example 16, 2-[2-(diethylamino)ethyl]-N-[1-[3-(dimethylamino)phenyl]ethyl]-4-(trifluoromethyl)-5-thiazolecarboxamide]: the Min conc. response is 0.3 µM and the EC50 lay within 1 to 20 µM. As to `CC(NC(=O)c1sc(CCN(C)Cc2ccncc2)nc1C(F)(F)F)c1cccc(C(F)(F)F)c1` (stereo not shown) [Example 17, 2-[2-[(4-pyridylmethyl)methylamino]ethyl]-4-(trifluoromethyl)-N-[1-[3-(trifluoromethyl)phenyl]ethyl]-5-thiazolecarboxamide], the Min conc. response was determined as 3 µM and the EC50 was in the range of 1 to 20 µM. Take `CC(NC(=O)c1sc(CCN(C)CCN(C)C)nc1C(F)(F)F)c1cccc(OC(F)(F)F)c1` (stereo not shown) [Example 19]: the Min conc. response stood at 3 µM and the EC50 lay within 1 to 20 µM. Compound `CC(NC(=O)c1sc(CCN(C)CCN(C)C)nc1C(F)(F)F)c1cccc(C(F)(F)F)c1` (stereo not shown) [Example 20] yielded a Min conc. response of 30 µM and an EC50 of 1 to 20 µM. `CC(NC(=O)c1sc(CCN2CCN(C)CC2)nc1C(F)(F)F)c1cccc(OC(F)(F)F)c1` (stereo not shown) [Example 21, 2-[2-(4-methyl-1-piperazinyl)ethyl]-N-[1-[3-(3-trifluoromethoxy)phenyl]ethyl]-4-(trifluoromethyl)-5-thiazolecarboxamide] displayed a Min conc. response of 0.3 µM and an EC50 of 1 to 20 µM. In the case of `CC(NC(=O)c1sc(CCN2CCCCC2)nc1C(F)(F)F)c1cccc(OC(F)(F)F)c1` (stereo not shown) [Example 22, 2-[2-(1-piperidinyl)ethyl]-N-[1-[3-(3-trifluoromethoxy)phenyl]ethyl]-4-(trifluoromethyl)-5-thiazolecarboxamide], the Min conc. response is 0.3 µM and the EC50 was in the range of 0.05 to 1 µM. On to `CC(NC(=O)c1sc(CCN2CCCCC2)nc1C(F)(F)F)c1cccc(N(C)C)c1` (stereo not shown) [Example 23, N-[1-[3-(dimethylamino)phenyl]ethyl]-2-[2-(1-piperidinyl)ethyl]-4-(trifluoromethyl)-5-thiazolecarboxamide], for which the Min conc. response stood at 0.3 µM and the EC50 was in the range of 1 to 20 µM. For `CC(NC(=O)c1sc(CCN2CCCCC2)nc1C(F)(F)F)c1cccc(C(F)(F)F)c1` (stereo not shown) [Example 24, 2-[2-(1-piperidinyl)ethyl]-N-[1-[3-(3-trifluoromethyl)phenyl]ethyl]-4-(trifluoromethyl)-5-thiazolecarboxamide], the Min conc. response is 0.3 µM and the EC50 is 1 to 20 µM. The matching figures for `C[C@H](NC(=O)c1sc(CCN2CCCCC2)nc1C(F)(F)F)c1cccc(N2CCOCC2)c1` [Example 25, N-[1-[3-(4-morpholinyl)phenyl]ethyl]-2-[2-(1-piperidinyl)ethyl]-4-(trifluoromethyl)-5-thiazolecarboxamide]: 3 µM and 1 to 20 µM. Compound `CC(NC(=O)c1sc(CCN2CCC(O)CC2)nc1C(F)(F)F)c1cccc(OC(F)(F)F)c1` (stereo not shown) [Example 26, 2-[2-(4-hydroxy-1-piperidinyl)ethyl]-4-(trifluoromethyl)-N-[1-[3-(trifluoromethoxy)phenyl]ethyl]-5-thiazolecarboxamide] gave a Min conc. response of 10 µM and an EC50 of 1 to 20 µM. With `CC(NC(=O)c1sc(CCN2CCC(O)CC2)nc1C(F)(F)F)c1cccc(C(F)(F)F)c1` (stereo not shown) [Example 27, 2-[2-(4-hydroxy-1-piperidinyl)ethyl]-4-(trifluoromethyl)-N-[1-[3-(trifluoromethyl)phenyl]ethyl]-5-thiazolecarboxamide], the Min conc. response turned out to be 30 µM and the EC50 lay within 1 to 20 µM. Compound `CCCN(CCc1nc(C(F)(F)F)c(C(=O)NC(C)c2cccc(OC(F)(F)F)c2)s1)CC1CC1` (stereo not shown) [Example 28, 2-[2-[(cyclopropylmethyl)propylamino]ethyl]-N-[1-[3-(trifluoromethoxy)phenyl]ethyl]-4-(trifluoromethyl)-5-thiazolecarboxamide] returned a Min conc. response of 0.3 µM and an EC50 of under 0.05 µM. `CCCN(CCc1nc(C(F)(F)F)c(C(=O)NC(C)c2cccc(N(C)C)c2)s1)CC1CC1` (stereo not shown) [Example 29, 2-[2-[(cyclopropylmethyl)propylamino]ethyl]-N-[1-[3-(dimethylamino)phenyl]ethyl]-4-(trifluoromethyl)-5-thiazolecarboxamide] had a Min conc. response of 3 µM and an EC50 of 1 to 20 µM. As for `CCCN(CCc1nc(C(F)(F)F)c(C(=O)NC(C)c2cccc(C(F)(F)F)c2)s1)CC1CC1` (stereo not shown) [Example 30, 2-[2-[(cyclopropylmethyl)propylamino]ethyl]-N-[1-[3-(trifluoromethyl)phenyl]ethyl]-4-(trifluoromethyl)-5-thiazolecarboxamide], the Min conc. response came to 3 µM and the EC50 was under 0.05 µM. The compound `CCN(CC)CCc1nc(C(F)(F)F)c(C(=O)N[C@@H](C)c2cccc(-c3cccnc3)c2)s1` [Example 31] came in with a Min conc. response of 0.3 µM and an EC50 of 1 to 20 µM. For `C[C@H](NC(=O)c1sc(CCN2CCCCC2)nc1C(F)(F)F)c1cccc(-c2cccnc2)c1` [Example 32, 2-[2-(1-piperidinyl)ethyl]-N-[1-[3-(3-pyridinyl)phenyl]ethyl]-4-(trifluoromethyl)-5-thiazolecarboxamide], the Min conc. response stood at 3 µM and the EC50 fell in the range of 1 to 20 µM.

Turning to `CCC(CC)NCCc1nc(C(F)(F)F)c(C(=O)NC(C)c2cccc(OC(F)(F)F)c2)s1` (stereo not shown) [Example 33, 2-[2-(3-pentylamino)ethyl]-N-[1-[3-(trifluoromethoxy)phenyl]ethyl]-4-(trifluoromethyl)-5-thiazolecarboxamide], the EC50 lay within 1 to 20 µM.
